Measurements published in the supplement of paper PMC13380429.

What was measured:
Settings in all cases: 72 h
Caco-2 [1] = assay: cell viability relative to DMSO; higher = less toxic
Calu-3 [2] = assay: as above
HepG2 [3] = assay: as above
U2OS [4] = assay: as above
Vero E6 [5] = assay: as above
Caco-2 [6] = assay: relative viability EC50 (midpoint between 100% and the lowest measured viability); higher = less toxic
Calu-3 [7] = assay: as above
HepG2 [8] = assay: as above
U2OS [9] = assay: as above
Vero E6 [10] = assay: as above
Caco-2 [11] = assay: drug sensitivity score (DSS) for viability; higher = more toxic; extreme values may be limits of the assay
Calu-3 [12] = assay: as above
HepG2 [13] = assay: as above
U2OS [14] = assay: as above
Vero E6 [15] = assay: as above

Row | Structure (SMILES) | cell viability (Caco-2 [1]; 1 nM) [%] | cell viability (Caco-2 [1]; 10 nM) [%] | cell viability (Caco-2 [1]; 100 nM) [%] | cell viability (Caco-2 [1]; 1000 nM) [%] | cell viability (Caco-2 [1]; 10000 nM) [%] | cell viability (Calu-3 [2]; 1 nM) [%] | cell viability (Calu-3 [2]; 10 nM) [%] | cell viability (Calu-3 [2]; 100 nM) [%] | cell viability (Calu-3 [2]; 1000 nM) [%] | cell viability (Calu-3 [2]; 10000 nM) [%] | cell viability (HepG2 [3]; 1 nM) [%] | cell viability (HepG2 [3]; 10 nM) [%] | cell viability (HepG2 [3]; 100 nM) [%] | cell viability (HepG2 [3]; 1000 nM) [%] | cell viability (HepG2 [3]; 10000 nM) [%] | cell viability (U2OS [4]; 1 nM) [%] | cell viability (U2OS [4]; 10 nM) [%] | cell viability (U2OS [4]; 100 nM) [%] | cell viability (U2OS [4]; 1000 nM) [%] | cell viability (U2OS [4]; 10000 nM) [%] | cell viability (Vero E6 [5]; 1 nM) [%] | cell viability (Vero E6 [5]; 10 nM) [%] | cell viability (Vero E6 [5]; 100 nM) [%] | cell viability (Vero E6 [5]; 1000 nM) [%] | cell viability (Vero E6 [5]; 10000 nM) [%] | relative viability EC50 (Caco-2 [6]) [µM] | relative viability EC50 (Calu-3 [7]) [µM] | relative viability EC50 (HepG2 [8]) [µM] | relative viability EC50 (U2OS [9]) [µM] | relative viability EC50 (Vero E6 [10]) [µM] | drug sensitivity score (Caco-2 [11]) | drug sensitivity score (Calu-3 [12]) | drug sensitivity score (HepG2 [13]) | drug sensitivity score (U2OS [14]) | drug sensitivity score (Vero E6 [15])
1 | CNCCN(C)Cc1c[nH]nc1-c1ccc(O[C@H]2C[C@H](OCCC3CCOCC3)C2)cc1 | 99.7 | 100 | 107 | 90.4 | 99.6 | 96.2 | 97.3 | 94.1 | 100 | 100 | 98 | 102 | 109 | 96.8 | 90.9 | 99.5 | 97.6 | 100 | 96.4 | 97 | 100 | 105 | 95.9 | 102 | 101 | > 10 | > 10 | > 10 | > 10 | > 10 | 0 | 0 | 0 | 0 | 0
2 | COc1ccc(C2CC(c3c(O)cc(C)oc3=O)=NCCS2)c(OC)c1 (centres undefined) | 103 | 98.7 | 99.5 | 64.4 | 47.4 | 105 | 105 | 97.7 | 80.4 | 57 | 94.9 | 106 | 92.8 | 44.4 | 36.6 | 102 | 97 | 93.9 | 69.8 | 33.2 | 100 | 105 | 101 | 35.9 | 31 | 0.73 |  | 0.328 | 1.1 | 0.391 | 7.1 | 4.4 | 11.2 | 7.1 | 11.8
3 | COc1ccc2c(c1)C(C(=O)N(Cc1ccc(N(C)C)cc1)c1ccc(C(C)C)cc1)CCC2 (centres undefined) | 105 | 96.3 | 105 | 95.9 | 75.5 | 90.3 | 98.9 | 96.9 | 88 | 107 | 99.8 | 109 | 98.5 | 109 | 102 | 102 | 100 | 102 | 98.2 | 100 | 101 | 103 | 99.3 | 103 | 105 | > 10 | > 10 | > 10 | > 10 | > 10 | 1.5 | 0 | 0 | 0 | 0
4 | COc1nccc(-c2c(-c3ccc(F)cc3)ncn2[C@H]2CC[C@H](O)CC2)n1 | 84.5 | 90.9 | 93.1 | 88.6 | 93.9 | 99.5 | 106 | 82.2 | 81.7 | 85.6 | 98.9 | 97.6 | 103 | 104 | 108 | 95.9 | 102 | 93.5 | 98.7 | 98.8 | 94.7 | 94.3 | 92.7 | 87.5 | 101 | > 10 | > 10 | > 10 | > 10 | > 10 | 0 | 3.8 | 0 | 0 | 0
5 | C[C@@]1(c2cc(-c3cncnc3)c(F)cc2F)CCSC(N)=N1 | 98.7 | 92.8 | 92.3 | 95.1 | 99.4 | 98 | 104 | 102 | 101 | 101 | 106 | 112 | 101 | 108 | 97.3 | 102 | 97.5 | 102 | 97.4 | 100 | 105 | 103 | 105 | 101 | 96 | > 10 | > 10 | > 10 | > 10 | > 10 | 0 | 0 | 0 | 0 | 0
6 | O=C(Nc1ccc(C(F)(F)F)cn1)N1CCN(c2ncccc2C(F)(F)F)CC1 | 97.9 | 99.3 | 97 | 96 | 92.1 | 99.3 | 104 | 93 | 100 | 92.8 | 108 | 91.7 | 105 | 98.4 | 101 | 94.1 | 98.5 | 102 | 99.4 | 100 | 102 | 93.9 | 94.9 | 101 | 103 | > 10 | > 10 | > 10 | > 10 | > 10 | 0 | 0 | 0 | 0 | 0
